Our source for the Activity, inhibition and IC50 values is ChEMBL document CHEMBL1221175, “Purmorphamine activates the Hedgehog pathway by targeting Smoothened” (Nat Chem Biol, 2006).

The structures appear in SMILES notation. Active and inactive are the calls of the source. The calls are words filed in the database; no cut-off is given here.

In assay [1] the target is Sonic hedgehog protein (Mus musculus) (UniProt Q62226). Nature of the assay: Activation of Shh in mouse Shh Light2 cells assessed as […] at 10 uM after 30 hrs by luciferase reporter gene assay in presence of 1000 to 10000 nM 3-keto-N-aminoethyl-N'-aminocaproyldihydrocinnamoyl cyclopamine. The format is functional, cell-based. The following applies: Shh Light II.

Assay [2] shares this target. Nature of the assay: Activation of Shh in mouse Shh Light2 cells assessed as […] at 1 uM after 30 hrs by luciferase reporter gene assay in presence of 1000 to 10000 nM 3-keto-N-aminoethyl-N'-aminocaproyldihydrocinnamoyl cyclopamine. The settings on record: Shh Light II. The assay is classed as functional, cell-based.
The target is the same in assay [3]. Nature of the assay: Activation of Shh in smo-expressing MEF at 0.5 uM after 30 hrs by luciferase reporter assay.
Assay [4] has the same target. Nature of the assay: Activation of Shh in mouse Shh Light2 cells assessed as […] after 30 hrs by luciferase reporter gene assay in presence of 100 nM 3-keto-N-aminoethyl-N'-aminocaproyldihydrocinnamoyl cyclopamine. The format is functional, cell-based. The settings on record: Shh Light II.
For assay [5] the target is unchanged. The assay can be described thus: Activation of Shh in smo gene-deficient MEF at 0.5 uM after 30 hrs by luciferase reporter assay.
In assay [6] the target is T1, Protein smoothened (Homo sapiens, UniProt Q99835). The settings on record: HEK-293T; 5 uM.
Description: Inhibition of BODIPY-cyclopamine binding to Smo C-terminal cytoplasmic domain expressed in HEK293T cells at 5 uM after 4 hrs by fluorescence microscopy
Assay [7] concerns the target T1, Protein smoothened. The assay can be described thus: Inhibition of BODIPY-cyclopamine binding to Smo expressed in HEK293T cells after 1 hr by fluorescence microscopy.
The target in assay [8] is Sonic hedgehog protein (Mus musculus) (UniProt Q62226). Nature of the assay: Activation of Shh in ptch1 gene-deficient MEF assessed as beta-galactosidase activity after 30 hrs by chemiluminescence assay in presence of 100 nM 3-keto-N-aminoethyl-N'-aminocaproyldihydrocinnamoyl cyclopamine.
In assay [9] the target is T1, Protein smoothened. The following applies: HEK-293T; 5 uM. This is another data set of the same source.
Description: Inhibition of BODIPY-cyclopamine binding to Smo N-terminal cysteine domain expressed in HEK293T cells at 5 uM after 4 hrs by fluorescence microscopy

T1 sequence (Q99835 whole entry): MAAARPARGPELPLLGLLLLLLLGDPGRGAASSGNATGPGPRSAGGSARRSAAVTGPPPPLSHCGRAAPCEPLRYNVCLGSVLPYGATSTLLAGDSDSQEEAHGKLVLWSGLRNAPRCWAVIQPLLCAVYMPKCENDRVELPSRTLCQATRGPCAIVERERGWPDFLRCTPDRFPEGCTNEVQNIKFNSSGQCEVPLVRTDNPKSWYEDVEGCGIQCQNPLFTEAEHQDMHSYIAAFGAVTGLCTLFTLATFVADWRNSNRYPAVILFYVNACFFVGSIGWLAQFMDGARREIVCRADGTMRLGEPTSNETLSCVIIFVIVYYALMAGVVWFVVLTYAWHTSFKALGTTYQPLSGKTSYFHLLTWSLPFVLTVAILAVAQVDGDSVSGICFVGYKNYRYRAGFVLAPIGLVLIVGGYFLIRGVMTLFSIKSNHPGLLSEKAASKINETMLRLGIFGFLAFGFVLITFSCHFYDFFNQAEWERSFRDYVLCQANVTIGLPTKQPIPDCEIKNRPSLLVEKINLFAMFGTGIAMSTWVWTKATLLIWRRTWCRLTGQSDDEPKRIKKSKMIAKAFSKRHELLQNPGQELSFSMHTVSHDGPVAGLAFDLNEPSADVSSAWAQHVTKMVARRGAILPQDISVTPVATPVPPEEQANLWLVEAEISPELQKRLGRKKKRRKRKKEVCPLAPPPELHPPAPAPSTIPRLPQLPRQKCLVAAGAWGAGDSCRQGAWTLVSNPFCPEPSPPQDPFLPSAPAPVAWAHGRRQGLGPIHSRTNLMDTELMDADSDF

In the case of `CC1=C2C[C@H]3[C@@H](CC=C4CC(=O)CC[C@@]43C)[C@@H]2CC[C@]12O[C@@H]1C[C@H](C)CN(CCNC(=O)CCCCCNC(=O)CCc3ccccc3)[C@H]1[C@H]2C`, the outcome in [1] and in assay [2] was Active.

On to `c1ccc2c(Oc3nc(Nc4ccc(N5CCOCC5)cc4)c4ncn(C5CCCCC5)c4n3)cccc2c1` [PURMORPHAMINE], for which the outcome in [3], in assay [4] and in [8] was Active. Also, the outcome in assay [5] was inactive. Also, the inhibition entry on Protein smoothened [6] and at Protein smoothened [9] was “Active” throughout. On Protein smoothened [7], this compound came in with a half-inhibitory concentration (IC50) of 1500 nM.

With `CN[C@H]1CC[C@H](N(Cc2cccc(-c3ccncc3)c2)C(=O)c2sc3ccccc3c2Cl)CC1`, the outcome in assay [8] was Active.

For `CC1=C2C[C@H]3[C@@H](CC=C4C[C@@H](O)CC[C@@]43C)[C@@H]2CC[C@]12O[C@@H]1C[C@H](C)CN[C@H]1[C@H]2C`, the result in assay [8] was Active.
